Results: US11345713B2, “Compounds as modulators of TLR2 signaling” (Neuropore Therapies, inc., priority 2018, dated 2022)

Key:
[1] = target: T1, human TLR2 (Pam2CSK4, TLR2/6 agonist) in HEK-Blue hTLR2 cells (Homo sapiens, UniProt O60603); assay: HEK-Blue hTLR2 antagonism assay (SEAP reporter) with Pam2CSK4 as agonist; format: cell-based; details: 2 h compound pre-incubation, approx. 3×EC50 Pam2CSK4, 18 h, SEAP OD 655 nm, background subtracted
T1 construct: host or cells: HEK-Blue hTLR2 (HEK-293)
Outline: (§1)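 HEK-Blue hTLR2 cells (HEK-293 with human TLR2 and NFκB-driven SEAP), 1×10^5/well, pretreated with compound (1% DMSO final) for 2 h, then stimulated with about 3×EC50 Pam3CSK4 or Pam2CSK4 (EC50 set each run) for 18 h at 37 °C. Supernatant SEAP read by Quanti-Blue at OD 655 nm after 15 min; background-subtracted IC50.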

[2] = target: T2, human TLR2 (Pam3CSK4, TLR1/2 agonist) in HEK-Blue hTLR2 cells (Homo sapiens, UniProt O60603); assay: HEK-Blue hTLR2 antagonism assay (SEAP reporter) with Pam3CSK4 as agonist; format: cell-based; details: 2 h compound pre-incubation, approx. 3×EC50 Pam3CSK4, 18 h, SEAP OD 655 nm, background subtracted
T2 construct: host or cells: HEK-Blue hTLR2 (HEK-293)
Outline: as §1

T2 sequence (O60603 19-784 limits assumed): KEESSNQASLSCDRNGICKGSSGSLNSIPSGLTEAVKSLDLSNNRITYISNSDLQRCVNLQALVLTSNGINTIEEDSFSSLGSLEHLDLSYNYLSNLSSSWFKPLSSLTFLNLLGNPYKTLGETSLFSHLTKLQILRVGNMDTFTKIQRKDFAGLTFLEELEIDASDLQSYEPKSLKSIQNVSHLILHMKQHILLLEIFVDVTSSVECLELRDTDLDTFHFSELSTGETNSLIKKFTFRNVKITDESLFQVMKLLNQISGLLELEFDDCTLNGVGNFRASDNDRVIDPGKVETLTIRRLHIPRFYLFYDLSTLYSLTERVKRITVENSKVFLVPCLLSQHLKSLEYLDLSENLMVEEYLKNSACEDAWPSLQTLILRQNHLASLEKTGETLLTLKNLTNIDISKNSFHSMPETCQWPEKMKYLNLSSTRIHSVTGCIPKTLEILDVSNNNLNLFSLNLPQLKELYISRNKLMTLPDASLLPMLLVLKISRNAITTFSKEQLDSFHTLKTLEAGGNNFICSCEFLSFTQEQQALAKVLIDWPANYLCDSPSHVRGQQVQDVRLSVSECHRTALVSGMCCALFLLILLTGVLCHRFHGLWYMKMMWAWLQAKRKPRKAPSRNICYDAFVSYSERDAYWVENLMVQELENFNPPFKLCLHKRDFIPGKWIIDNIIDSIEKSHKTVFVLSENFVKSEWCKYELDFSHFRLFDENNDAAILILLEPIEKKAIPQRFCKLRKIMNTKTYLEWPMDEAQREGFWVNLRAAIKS
T1 sequence (O60603 19-784 limits assumed): as above

SMILES | IC50 [1] [µM] | IC50 [2] [µM]
COc1cc(/C=C/c2cccc(N3CCOCC3)c2)cc(C=O)c1O [compound 44, (E)-2-hydroxy-3-methoxy-5-(3-morpholinostyryl)benzaldehyde] | 3 | 3.2
COc1cc(C=Cc2ccc(Cl)cc2)cc(C=O)c1O [compound 3, 5-(4-chlorostyryl)-2-hydroxy-3-methoxybenzaldehyde] | 4.8 | 3.1
